Read-outs that look alike come from different tables or passages of the source.
Legend:
Type in all cases: cell-based
[1] = tested on: human cervical carcinoma cells (HeLa); assay: Cytotoxicity, MTT assay, HeLa; conditions: for IC50: Homo sapiens, HeLa, MTT, 24 hours; for HeLa SI: quotient of the IC50 values towards nonmalignant LO2 cells
From the text: (§1) Compounds 2a–d, 3a–e, 4a–e, 5a–d, and 6a–c were screened against human neoplastic cell lines such as human lung carcinoma cells (A549), human gastric adenocarcinoma cells (SGC7901), human cervical carcinoma cells (HeLa), human liver hepatocellular carcinoma cell line (Hepg2), human chronic myelogenous leukemia cell line (K562), human acute mononuclear granulocyte leukemia (THP-1), human normal heptical cell line (LO2) (Table 1) using modified MTT assay (3-(4,5-dimethyl-2-thiazolyl)-2,5-diphenyl-2-H-tetrazolium bromide, MTT, Dojindo Laboratories, Tokyo, Japan). All cell lines were maintained at 37 °C in a humidified 5% CO2 and 95% air atmosphere. The HePG2 cell lines were cultured in DMEM containing 10% fetal bovine serum. Other cell lines were grown in medium 1640 and supplemented with 10% fetal bovine serum. […] Controls were prepared with 0.1% DMSO (v/v) only. The cells were seeded in a 96-well plate in 200 µL medium per well at a density of 1 × 10^4 cells/well for 24 hours. The cells were treated with serial concentrations of compound and incubated for 24 hours. Cells with only culture media were used as control. After the media was removed, 20 µL of MTT (5 mg/mL) was added then the plates were incubated for 4 hours at 37 °C in cell culture incubator. The MTT containing media were removed and then 150 µL of DMSO was added to dissolve the dark-blue formazan crystals. The optical density (OD) was measured by a multi-well plate reader (TECAN, Männedorf, Switzerland) at 570 nm. The results are expressed as a decrease in the cell viability (%) in comparison to untreated controls. The concentration of each compound was examined in triplicate, and the IC50 values are expressed in Table 1. The concentrations of the compounds were 50, 20, 10, 5, 2.5, 1, 0.5, 0.1, 0.05 and 0.01 µg/mL. Doxorubicin (DOX) and Curcumin were used as positive controls. […] The concentrations of curcumin used were 100, 50, 25, 12.5, 6.25, 3.125, 1, 0.5 and 0.1 µg/mL.

[2] = tested on: human liver hepatocellular carcinoma cell line (Hepg2); assay: Cytotoxicity, MTT assay, HePG2; conditions: for IC50: Homo sapiens, HepG2, MTT, 24 hours; for HePG2 SI: quotient of the IC50 values towards nonmalignant LO2 cells
From the text: as §1, with “µg/mL.” for “µg/mL. Doxorubicin (DOX) and Curcumin were used as positive controls.”

[3] = tested on: human gastric adenocarcinoma cells (SGC7901); assay: Cytotoxicity, MTT assay, SGC7901; conditions: for IC50: Homo sapiens, SGC-7901, MTT, 24 hours; for SGC7901 SI: quotient of the IC50 values towards nonmalignant LO2 cells
From the text: as §1

[4] = tested on: human lung carcinoma cells (A549); assay: Cytotoxicity, MTT assay, A549; conditions: for IC50: Homo sapiens, A549, MTT, 24 hours; for A549 SI: quotient of the IC50 values towards nonmalignant LO2 cells
From the text: as §1

[5] = tested on: human acute mononuclear granulocyte leukemia (THP-1); assay: Cytotoxicity, MTT assay, THP-1; conditions: for IC50: Homo sapiens, THP-1, MTT, 24 hours; for THP-1 SI: quotient of the IC50 values towards nonmalignant LO2 cells
From the text: as §1

[6] = tested on: human chronic myelogenous leukemia cell line (K562); assay: Cytotoxicity, MTT assay, K562; conditions: for IC50: Homo sapiens, K562, MTT, 24 hours; for K562 SI: quotient of the IC50 values towards nonmalignant LO2 cells
From the text: as §1

[7] = tested on: human normal heptical cell line (LO2); assay: Cytotoxicity, MTT assay, non-malignant LO2; conditions: 24 hours, non-malignant cells
From the text: as §1

[8] = tested on: human carcinoma cell lines A549, SGC7901, HePG2, HeLa, K562, THP-1; assay: Cytotoxicity, MTT assay, panel of human carcinoma cell lines (average / overall); conditions: for IC50: Homo sapiens
From the text: as §1
The cytotoxicity activities against human carcinoma cell lines A549, SGC7901, HePG2, HeLa, K562, THP-1 and cytotoxicity toward LO2 cell lines were evaluated by MTT method. DOX and curcumin were used as positive control. The selectivity index (SI) is the quotient of the IC50 values towards nonmalignant LO2 cells. […] Especially for 4a–e, 5a–d, and 6a–c, this ratio can reach about 92%.

[9] = average over the six carcinoma cell lines, read-out: Ave IC50
[10] = average over the six carcinoma cell lines

SMILES	IC50 [1] [µM]	HeLa SI [1]	IC50 [2] [µM]	HePG2 SI [2]	IC50 [3] [µM]	IC50 [4] [µM]	A549 SI [4]	IC50 [5] [nM]	THP-1 SI [5]	IC50 [6] [µM]	K562 SI [6]	IC50 [7] [µM]	IC50 [8, 9] [µM]	IC50 ([8]; statement for all experimental carcinoma cell lines, read-out: IC50 values against human carcinoma cell lines) [µM]	Ave SI [8, 10]	SGC7901 SI [3]
Nc1cccc(/C=C2\CCC/C(=C\c3cccc(N)c3)C2=O)c1 [2a, (2E,6E)-2,6-bis(3-aminobenzylidene)cyclohexanone]	25.9 ± 3.7	1.1	10.7 ± 0.5	2.6	9.4 ± 0.2	7.9 ± 0.1	3.6	6200 ± 1100	4.5	22.2 ± 1.9	1.3	28.2 ± 3.9	13.7	> 5	2.7	
CN1C/C(=C\c2cccc(N)c2)C(=O)/C(=C/c2cccc(N)c2)C1 [2b, (3E,5E)-3,5-bis(3-aminobenzylidene)-1-methylpiperidin-4-one]	4.4 ± 0.1	3.8	3.1 ± 0.2	5.4	4.2 ± 0.3	6.5 ± 0.1	2.6	1500 ± 100	11.5	4.3 ± 0.1	3.9	16.9 ± 0.2	4		5.2	4.0
Nc1ccc(F)c(/C=C2\CNC/C(=C\c3cc(N)ccc3F)C2=O)c1 [2c]	2.2 ± 0.1	8.7	5.8 ± 0.2	3.2	2.5 ± 0.8	3.4 ± 1.2	5.5	1400 ± 200	13.9	2 ± 0.1	9.3	18.8 ± 1.4	2.9		8.0	7.4
CN1C/C(=C\c2cc(N)ccc2F)C(=O)/C(=C/c2cc(N)ccc2F)C1 [2d]	3.1 ± 0.1	6.9	6.2 ± 0.3	3.5	3.8 ± 1.2	4.1 ± 1	5.4	2100 ± 1100	10.3	3 ± 0.1	7.3	21.6 ± 2.8	3.7		6.5	5.6
O=C1/C(=C/c2cccc(/N=C/c3ccccc3O)c2)CCC/C1=C\c1cccc(/N=C/c2ccccc2O)c1 [3a]	9.9 ± 0.3	1.8	3.3 ± 0.1	5.6	11.4 ± 0.2	7.4 ± 0.3	2.5	1500 ± 100	12.4	3.4 ± 0.01	5.4	18.2 ± 0.2	6.1		4.9	1.6
O=C1/C(=C/c2cccc(/N=C/c3cc(F)ccc3O)c2)CCC/C1=C\c1cccc(/N=C/c2cc(F)ccc2O)c1 [3b]	8.9 ± 0.2	1.9	2.8 ± 0.1	6.1	2.7 ± 0.6	6.1 ± 0.4	2.8	1600 ± 100	10.5	3.4 ± 0.01	5.0	17.1 ± 0.1	4.3		5.5	6.4
O=C1/C(=C/c2cccc(/N=C/c3cc(Br)ccc3O)c2)CCC/C1=C\c1cccc(/N=C/c2cc(Br)ccc2O)c1 [3c]	11.4 ± 0.9	1.0	13.7 ± 1.1	0.9	5.2 ± 0.8	10.6 ± 1.1	1.1	5300 ± 10	2.3	14 ± 0.1	0.9	12 ± 0.1	10		1.4	2.3
COc1ccc(/C=N/c2cccc(/C=C3\CCC/C(=C\c4cccc(/N=C/c5ccc(OC)cc5O)c4)C3=O)c2)c(O)c1 [3d]	13.1 ± 1	0.9	4 ± 0.1	2.9	7.1 ± 1	4.1 ± 0.6	2.8	3200 ± 30	3.6	3.2 ± 0.02	3.6	11.3 ± 0.1	5.8		2.5	1.6
COc1cc(Br)cc(/C=N/c2cccc(/C=C3\CCC/C(=C\c4cccc(/N=C/c5cc(Br)cc(OC)c5O)c4)C3=O)c2)c1O [3e]	12.8 ± 0.9	0.9	1.9 ± 0.01	6.0	3 ± 0.8	2.5 ± 0.4	4.4	3300 ± 100	3.4	4.2 ± 0.1	2.7	11.3 ± 0.3	4.6		3.5	3.8
CN1C/C(=C\c2cccc(/N=C/c3ccccc3O)c2)C(=O)/C(=C/c2cccc(/N=C/c3ccccc3O)c2)C1 [4a]	6.3 ± 0.2	1.7	2.59 ± 0.1	4.1	8.3 ± 0.8	5.2 ± 0.4	2.1	900 ± 100	12.0	2.8 ± 0.1	3.8	10.6 ± 0.1	4.3		4.2	1.3
CN1C/C(=C\c2cccc(/N=C/c3cc(F)ccc3O)c2)C(=O)/C(=C/c2cccc(/N=C/c3cc(F)ccc3O)c2)C1 [4b]	3.5 ± 0.1	4.0	1.07 ± 0.1	12.9	1.4 ± 0.2	4.1 ± 0.4	3.4	1200 ± 30	11.5	2.15 ± 1	6.4	13.8 ± 0.1	2.2		8.0	10.0
CN1C/C(=C\c2cccc(/N=C/c3cc(Br)ccc3O)c2)C(=O)/C(=C/c2cccc(/N=C/c3cc(Br)ccc3O)c2)C1 [4c]	4.7 ± 0.1	2.8	3.54 ± 0.1	3.6	3 ± 0.3	9 ± 0.8	1.4	2500 ± 200	5.1	6.2 ± 0.7	2.1	12.8 ± 0.2	4.8		3.2	4.3

From paper PMC6327999, “Hydroxyl-substituted double Schiff-base condensed 4-piperidone/cyclohexanones as potential anticancer agents with biological evaluation” (Journal of Enzyme Inhibition and Medicinal Chemistry, 2019)
